Measurements as given in PubChem BioAssay (NCI).
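Dose response: 5 concentrations. Exposure: 48 h. Format: 96-well plates. Endpoint: linear interpolation; highest concentration if not reached. Here, GI50 denotes the concentration required for 50% inhibition of growth. At the TGI there is no net growth.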

Assays:
Experiment in all cases: inhibition of tumour cell growth, NCI panel, 48 h
[1] = test system: DU-145 prostate
[2] = test system: SN12C renal
[3] = test system: SK-MEL-28 melanoma
[4] = test system: SF-295 CNS
[5] = test system: NCI-H23 lung
[6] = test system: MALME-3M melanoma
[7] = test system: UO-31 renal
[8] = test system: UACC-62 melanoma
[9] = test system: PC-3 prostate
[10] = test system: OVCAR-8 ovarian
[11] = test system: EKVX NSCLC
[12] = test system: KM12 colon
[13] = test system: MCF7 breast
[14] = test system: U251 CNS
[15] = test system: A498 renal
[16] = test system: SNB-19 CNS
[17] = test system: RPMI-8226 leukemia
[18] = test system: SF-539 CNS
[19] = test system: MDA-MB-468 breast
[20] = test system: ACHN renal
[21] = test system: HCT-15 colon
[22] = test system: NCI/ADR-RES ovarian
[23] = test system: TK-10 renal
[24] = test system: OVCAR-3 ovarian
[25] = test system: HS 578T breast
[26] = test system: OVCAR-4 ovarian
[27] = test system: HCC-2998 colon
[28] = test system: CCRF-CEM leukemia
[29] = test system: HL-60(TB) leukemia
[30] = test system: LOX IMVI melanoma
[31] = test system: K-562 leukemia
[32] = test system: OVCAR-5 ovarian
[33] = test system: SNB-75 CNS
[34] = test system: MDA-MB-435
[35] = test system: MDA-MB-231 breast
[36] = test system: IGROV1 ovarian
[37] = test system: RXF 393 renal
[38] = test system: SK-MEL-5 melanoma

With `Brc1ccc(-c2n(Cc3ccc4ccccc4c3)c(-c3ccccc3)c(-c3ccccc3)[n+]2Cc2ccc3ccccc3c2)cc1` the GI50 [1] was 381 nM, the TGI [1] was 1480 nM and the GI50 [2] was 256 nM. It also gave a TGI [2] of 1010 nM, a GI50 [3] of 428 nM and a TGI [3] of 1580 nM. It also gave a GI50 [4] of 220 nM, a TGI [4] of 682 nM and a GI50 [5] of 244 nM. It also gave a TGI [5] of 817 nM, a GI50 [6] of 214 nM and a TGI [6] of 635 nM. For the same compound, the GI50 [7] was 1130 nM, the TGI [7] was 2550 nM and the GI50 [8] was 285 nM. For the same compound, the TGI [8] was 1200 nM, the GI50 [9] was 332 nM and the TGI [9] was 1500 nM. For the same compound, the GI50 [10] was 302 nM, the TGI [10] was 1800 nM and the GI50 [11] was 197 nM. The TGI [11] was 1030 nM, the GI50 [12] was 276 nM and the TGI [12] was 1130 nM. It also gave a GI50 [13] of 221 nM, a TGI [13] of 816 nM and a GI50 [14] of 248 nM. The TGI [14] was 2600 nM, the GI50 [15] was 338 nM and the TGI [15] was 1310 nM. For the same compound, the GI50 [16] was 314 nM, the TGI [16] was 1250 nM and the GI50 [17] was 124 nM. It also gave a TGI [17] of 744 nM, a GI50 [18] of 338 nM and a TGI [18] of 1250 nM. The GI50 [19] was 68.7 nM, the TGI [19] was 494 nM and the GI50 [20] was 363 nM. The TGI [20] was 1240 nM, the GI50 [21] was 695 nM and the TGI [21] was 2020 nM. The GI50 [22] was 1440 nM, the TGI [22] was 2970 nM and the GI50 [23] was 296 nM. It also gave a TGI [23] of 1190 nM, a GI50 [24] of 253 nM and a TGI [24] of 2790 nM. The GI50 [25] was 439 nM, the TGI [25] was 2180 nM and the GI50 [26] was 300 nM. It also gave a TGI [26] of 1400 nM, a GI50 [27] of 344 nM and a TGI [27] of 1370 nM. For the same compound, the GI50 [28] was 342 nM, the TGI [28] was 2010 nM and the GI50 [29] was 154 nM. It also gave a TGI [29] of 533 nM, a GI50 [30] of 272 nM and a TGI [30] of 857 nM. For the same compound, the GI50 [31] was 152 nM, the TGI [31] was 1460 nM and the GI50 [32] was 305 nM. For the same compound, the TGI [32] was 1240 nM, the GI50 [33] was 189 nM and the TGI [33] was 1020 nM. It also gave a GI50 [34] of 295 nM, a TGI [34] of 1070 nM and a GI50 [35] of 239 nM. It also gave a TGI [35] of 707 nM, a GI50 [36] of 301 nM and a TGI [36] of 1490 nM. It also gave a GI50 [37] of 212 nM, a TGI [37] of 798 nM and a GI50 [38] of 169 nM. The TGI [38] was 316 nM.
